The test system of data set [1] is Caco-2 cells. The data set is described as follows: Glucose uptake assay (2-DG6P) in Caco-2 cells. Format: cell-based, human. Conditions: 1 mM, 24 h. As for the experimental part:
Glucose uptake was evaluated by using the glucose uptake colorimetric assay kit (Sigma-Aldrich) according to the manufacturer's instructions. Briefly, Caco-2 cells were seeded into a 96-well plate at a density of 30,000 cells per well. Cells were serum deprived for 16 hours prior to stimulation in order to synchronize the cells. Cells were treated with GED (1 mM) or pioglitazone (1 μM) for 24 h. Cells were then washed 3 times with PBS and were glucose-starved by incubating with 100 μl of KRPH buffer (Krebs-Ringer-Phosphate-HEPES (KRPH) Buffer—20 mM HEPES, 5 mM KH2PO4, 1 mM MgSO4, 1 mM CaCl2, 136 mM NaCl, and 4.7 mM KCl, pH 7.4) containing 2% BSA for 40 minutes. 10 μl of 2-deoxyglucose (2-DG; 10 mM) was then added and incubation was continued for 20 minutes. 2-DG is taken up by the cells and phosphorylated by hexokinase to 2-DG6P, which cannot be further metabolized and accumulates in cells. Following incubation, cells were washed 3 times with PBS and lysed with 80 μl of the extraction buffer provided. The amount of 2-DG6P (which is directly proportional to glucose uptake by the cells) was determined by a colorimetric detection assay according to the manufacturer's protocol.

For data set [2], the system named is lactase. The data set is described as follows: Lactase expression and activity in short term cultures of human duodenal biopsies. It is filed as cell-based. The settings on record: exposure for 6 hours.
In data set [3] the test system is LCT. The data set is described as follows: LCT mRNA and LCT activity in duodenum and jejunum of rats after 5 days oral gavage. Format: in vivo, Sprague Dawley rats. As for the experimental part: Expression of genes of interest was quantified by quantitative PCR (qPCR) of corresponding reverse transcribed mRNA. One μg of total RNA was reverse-transcribed into cDNA using the High Capacity cDNA Archive kit (Applied Biosystems). Amplification was performed using an ABI PRISM 7000 sequence detection system (Applied Biosystem) using Power SYBR® Green PCR master Mix (Applied Biosystem). Primer pairs for each human transcript were chosen with qPrimer depot software (at primerdepot.nci.nih.gov.). Quantification of qPCR signals was performed using ΔCt relative quantification method using GAPDH as a reference gene for human and rat samples and β-Actin for mouse samples. Values were represented in terms of relative quantity of mRNA level variation or fold increase compared to control conditions.
Lactase activity was evaluated by using a glucose oxidase method (Glucose Assay Kit, Sigma). This lactase assay is based on the measurement of the amount of glucose produced following the action of lactase by incubating samples with a lactose buffer solution (0.056 mol/l lactose in a 0.1 mol/l Na-maleate buffer). For Caco-2 cells, lactase activity was determined directly from the cell monolayer. After extensive washing, the cell monolayer was incubated with lactose buffer for one hour at 37° C. The supernatant was recovered, 50 μl were diluted with 100 μl of glucose oxidase reagent and incubated at 37° C. for 1 hour. The reaction was stopped with 100 μl of H2SO4 and read by spectrophotometry at 450 nm. When lactase activity was determined from intestinal sample, tissue samples were first dounce-homogenized in 0.9% NaCl on crushed ice. These homogenates were then diluted in 0.9% NaCl ( 1/500) and 50 μl of dilution were incubated with lactose buffer and used to determine lactase activity. For each experiment, the background attributed to the remaining glucose in the samples was measured by incubating cells or cell extracts in lactose-free buffer.
To determine whether CLA induces LCT expression and activity in vivo, Sprague Dawley rats were fed a control diet and administered either carboxymethyl cellulose (CMC; 0.5%), CLA, or GED for 5 days, after which levels of PPARγ mRNA, LCT mRNA, and LCT activity were measured. CLA was administered at 200 mg/kg/day by oral gavage, and GED was administered at 30 mg/kg/day by oral gavage (FIG. 21A).

The mark [4] stands for this setting: oral gavage 5 days, GED 30 mg/kg/day, CLA 200 mg/kg/day.

Consider `COC(Cc1ccc(N)cc1)C(=O)O` (stereo not shown) [GED, 3-(4′-aminophenyl)2-methoxypropionic acid], for which, in data set [1], the “glucose uptake of Caco-2 cells” value is listed as “did not significantly alter”. The lactase expression result in data set [2] is given as “significant increase”. Besides, the lactase activity entry in data set [2] (data not shown) is “significant increase”. In data set [3] (30 mg/kg/day oral gavage 5 days), the “LCT activity in jejunal tissue compared to CMC control” value is listed as “significant increase”. In addition, in data set [3] (setting [4]), the “LCT activity in duodenal tissue compared to CMC control” value is listed as “significant increase”, the “LCT mRNA expression in duodenal tissue relative to CMC control” value was “significant increase” and the “LCT mRNA expression in jejunal tissue relative to CMC control” value is “significant increase”.

For the origin of these results see US20190046490A1, “METHODS OF TREATING LACTOSE INTOLERANCE” (Nogra Pharma Limited, priority 2016, published 2019).
